Measured values as given in patent publication US20210155604A1, “QUINAZOLINE COMPOUND SERVING AS EGFR TRIPLE MUTATION INHIBITOR AND APPLICATIONS THEREOF” (EAST CHINA UNIVERSITY OF SCIENCE AND TECHNOLOGY, priority 2018, published 2021).

Experiments:
[1] = target: T1, EGFR L858R/T790M/C797S (LR/TM/CS) (Homo sapiens, UniProt P00533, C797S/L858R/T790M); experiment: ELISA kinase activity detection, EGFR triple mutant; assay type: biochemical; details: ELISA-based EGFR-TK assay, ATP 5 μM, mean ± SD
T1 construct: purchased BPS Bioscience
T1 sequence (P00533 25-1210 T790M/C797S/L858R): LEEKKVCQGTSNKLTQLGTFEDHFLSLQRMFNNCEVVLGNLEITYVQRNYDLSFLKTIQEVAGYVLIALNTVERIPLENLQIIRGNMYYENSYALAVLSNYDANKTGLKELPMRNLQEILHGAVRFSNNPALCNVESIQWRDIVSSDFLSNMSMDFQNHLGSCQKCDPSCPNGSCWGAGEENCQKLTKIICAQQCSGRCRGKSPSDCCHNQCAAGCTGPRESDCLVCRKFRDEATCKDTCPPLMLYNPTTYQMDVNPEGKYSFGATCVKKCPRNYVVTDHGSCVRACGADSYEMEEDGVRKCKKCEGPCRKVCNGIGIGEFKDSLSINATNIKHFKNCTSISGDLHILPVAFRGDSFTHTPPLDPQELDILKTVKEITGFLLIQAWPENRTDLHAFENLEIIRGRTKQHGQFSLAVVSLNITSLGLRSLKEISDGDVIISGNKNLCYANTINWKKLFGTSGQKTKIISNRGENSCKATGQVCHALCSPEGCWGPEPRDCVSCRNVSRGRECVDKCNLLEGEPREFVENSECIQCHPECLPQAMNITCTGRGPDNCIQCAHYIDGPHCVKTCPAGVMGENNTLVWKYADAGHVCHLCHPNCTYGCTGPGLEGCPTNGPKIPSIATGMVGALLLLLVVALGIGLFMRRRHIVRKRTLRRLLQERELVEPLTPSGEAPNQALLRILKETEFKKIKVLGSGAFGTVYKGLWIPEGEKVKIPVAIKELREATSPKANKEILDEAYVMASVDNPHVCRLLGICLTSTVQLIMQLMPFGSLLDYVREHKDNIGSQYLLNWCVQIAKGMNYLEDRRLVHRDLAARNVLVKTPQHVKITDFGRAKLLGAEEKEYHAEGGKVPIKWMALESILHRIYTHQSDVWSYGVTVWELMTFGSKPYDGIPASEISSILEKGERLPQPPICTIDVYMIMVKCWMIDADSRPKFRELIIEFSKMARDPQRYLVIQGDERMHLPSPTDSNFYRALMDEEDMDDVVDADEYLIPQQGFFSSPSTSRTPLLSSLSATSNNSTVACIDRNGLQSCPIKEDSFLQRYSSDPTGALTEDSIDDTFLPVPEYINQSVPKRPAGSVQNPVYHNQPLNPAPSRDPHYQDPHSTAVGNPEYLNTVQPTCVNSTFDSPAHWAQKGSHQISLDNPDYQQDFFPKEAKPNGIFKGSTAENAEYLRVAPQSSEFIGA
Protocol: (§1) Tyrosine kinase: EGFR(WT) • EGFR^T790M/L858R(LR/TM) • EGFR^T790M/L858R/[…](LR/TM/CS)
(§2) ELISA Kinase Activity Detection
Enzyme-Linked Immunosorbent Assay (ELISA) was used to detect the ability of a kinase to phosphorylate a substrate and calculate the inhibitory effect of a compound on the kinase activity. The used kinase was EGFR L858R/T790M/C797S (purchased from BPS Bioscience).
(§3) The main steps of ELISA are listed as follows: the substrate Poly(Glu, Tyr) 4:1 was diluted with potassium ion-free PBS to 2.5 μg/well, incubated at 37° C. for 12-16 h to coat the ELISA plate for use. An ATP solution (final concentration of 5 μM) diluted with a reaction buffer (50 mM HEPES pH 7.4, 20 mM MgCl2, 0.1 mM MnCl2, 0.2 mM Na3VO4, 1 mM DTT) was added to each well. A compound or solvent control was added, and then a kinase was added to start the reaction at 37° C. in a shaker for 1 h. The plate was washed for three times with T-PBS, and 100 μL of antibody PY99 (diluted in T-PBS containing 5 mg/mL BSA, 1: 500) was added, and incubated in a shaker at 37° C. for 0.5 h. After washing the plate with T-PBS, 100 μL of horseradish peroxidase-labeled goat anti-mouse IgG (diluted in T-PBS containing 5 mg/mL BSA, 1: 2000) was added, and incubated in a shaker at 37° C. for 0.5 h. After washing the plate again, a developing liquid containing 0.03% H2O2, 2 mg/mL OPD (0.1 mol/L, in citrate buffer solution pH 5.4) was added at 100 μL/well, and incubated for 1-10 min at 25° C. in darkness. 50 μL/well of 2 M H2SO4 was added to quench the reaction, and read with a wavelength-tunable microplate reader (SpectraMax Plus384, Molecular Devices) at a wavelength of 490 nm. The IC50 value was obtained from the inhibition curve.

EGFR(WT) = EGFR(WT) (Homo sapiens, UniProt P00533); experiment: ELISA kinase activity detection, EGFR(WT); assay type: biochemical; details: ELISA-based EGFR-TK assay, ATP 5 μM; mean ± SD of at least two determinations
Chain of EGFR(WT) (P00533 25-1210): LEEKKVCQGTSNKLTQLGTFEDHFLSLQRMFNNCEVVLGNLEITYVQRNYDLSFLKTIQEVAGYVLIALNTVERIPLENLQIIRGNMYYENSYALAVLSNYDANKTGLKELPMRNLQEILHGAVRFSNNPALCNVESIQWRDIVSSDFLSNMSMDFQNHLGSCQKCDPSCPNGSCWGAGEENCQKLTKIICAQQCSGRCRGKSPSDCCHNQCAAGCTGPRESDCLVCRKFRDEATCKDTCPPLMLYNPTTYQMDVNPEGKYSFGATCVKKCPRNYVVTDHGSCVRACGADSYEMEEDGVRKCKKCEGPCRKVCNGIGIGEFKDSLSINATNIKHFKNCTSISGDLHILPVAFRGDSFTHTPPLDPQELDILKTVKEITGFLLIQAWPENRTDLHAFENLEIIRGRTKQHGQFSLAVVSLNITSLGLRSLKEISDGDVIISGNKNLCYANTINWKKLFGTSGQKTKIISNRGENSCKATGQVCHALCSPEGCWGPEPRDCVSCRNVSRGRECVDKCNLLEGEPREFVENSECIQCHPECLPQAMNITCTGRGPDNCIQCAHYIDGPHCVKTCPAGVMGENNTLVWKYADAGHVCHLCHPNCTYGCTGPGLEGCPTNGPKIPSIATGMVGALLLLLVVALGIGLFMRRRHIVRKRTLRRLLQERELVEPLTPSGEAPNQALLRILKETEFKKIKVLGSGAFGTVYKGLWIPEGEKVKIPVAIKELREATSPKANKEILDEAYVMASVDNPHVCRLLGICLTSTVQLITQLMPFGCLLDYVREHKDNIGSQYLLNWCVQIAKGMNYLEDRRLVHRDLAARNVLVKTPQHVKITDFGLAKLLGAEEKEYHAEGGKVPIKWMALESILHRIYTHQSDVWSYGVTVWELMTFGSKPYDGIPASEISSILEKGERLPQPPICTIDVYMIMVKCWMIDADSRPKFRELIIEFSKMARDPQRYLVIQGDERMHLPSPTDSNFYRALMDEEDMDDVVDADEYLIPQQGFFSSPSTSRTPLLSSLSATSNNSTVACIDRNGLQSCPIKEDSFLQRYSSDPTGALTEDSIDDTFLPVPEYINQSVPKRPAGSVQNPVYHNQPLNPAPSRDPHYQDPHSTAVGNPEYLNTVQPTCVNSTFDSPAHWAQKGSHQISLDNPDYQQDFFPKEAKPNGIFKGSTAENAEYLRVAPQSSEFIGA
Protocol: as §1, §2
Enzyme-Linked Immunosorbent Assay (ELISA) was used to detect the ability of a kinase to phosphorylate a substrate and calculate the inhibitory effect of a compound on the kinase activity. […]
as §3

EGFR L858R/T790M (LR/TM) = EGFR L858R/T790M (LR/TM) (Homo sapiens, UniProt P00533, L858R/T790M); experiment: ELISA kinase activity detection, EGFR double mutant; assay type: biochemical; details: ELISA-based EGFR-TK assay, ATP 5 μM, mean ± SD
Chain of EGFR L858R/T790M (LR/TM) (P00533 25-1210 T790M/L858R): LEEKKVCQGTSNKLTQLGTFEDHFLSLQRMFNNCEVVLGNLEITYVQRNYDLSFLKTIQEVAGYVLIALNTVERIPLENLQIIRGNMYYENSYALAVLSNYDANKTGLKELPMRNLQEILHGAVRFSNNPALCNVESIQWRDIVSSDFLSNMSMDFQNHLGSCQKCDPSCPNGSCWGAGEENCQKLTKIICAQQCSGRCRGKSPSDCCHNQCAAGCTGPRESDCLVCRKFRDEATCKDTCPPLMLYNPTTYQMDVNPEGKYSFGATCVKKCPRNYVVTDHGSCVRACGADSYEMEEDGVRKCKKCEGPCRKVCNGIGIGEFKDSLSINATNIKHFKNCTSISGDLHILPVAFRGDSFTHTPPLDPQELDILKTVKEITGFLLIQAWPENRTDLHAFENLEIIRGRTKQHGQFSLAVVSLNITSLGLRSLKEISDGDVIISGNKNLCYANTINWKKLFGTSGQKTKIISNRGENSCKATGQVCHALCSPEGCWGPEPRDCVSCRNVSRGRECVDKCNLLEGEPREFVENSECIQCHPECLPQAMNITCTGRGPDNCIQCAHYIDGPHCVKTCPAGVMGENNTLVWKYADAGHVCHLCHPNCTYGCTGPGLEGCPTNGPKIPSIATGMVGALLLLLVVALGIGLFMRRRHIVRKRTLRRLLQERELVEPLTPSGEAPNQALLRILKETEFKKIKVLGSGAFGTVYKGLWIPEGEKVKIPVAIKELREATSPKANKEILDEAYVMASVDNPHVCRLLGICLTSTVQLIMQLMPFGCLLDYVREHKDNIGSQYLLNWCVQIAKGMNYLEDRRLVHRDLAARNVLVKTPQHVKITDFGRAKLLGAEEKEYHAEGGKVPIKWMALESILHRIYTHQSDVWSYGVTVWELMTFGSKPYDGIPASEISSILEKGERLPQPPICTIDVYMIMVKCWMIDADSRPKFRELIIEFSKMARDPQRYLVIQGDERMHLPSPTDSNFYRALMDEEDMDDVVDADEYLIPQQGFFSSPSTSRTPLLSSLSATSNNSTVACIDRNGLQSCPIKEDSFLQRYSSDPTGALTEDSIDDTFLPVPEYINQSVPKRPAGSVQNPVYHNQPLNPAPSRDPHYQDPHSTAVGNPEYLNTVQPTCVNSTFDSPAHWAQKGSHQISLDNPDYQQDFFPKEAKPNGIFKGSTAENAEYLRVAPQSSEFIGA

Row | Compound | IC50 [1] [nM] | IC50 (EGFR(WT)) [nM] | IC50 (EGFR L858R/T790M (LR/TM)) [nM] | melting point [°C]
1 | COc1cc2c(Nc3ccc(OCc4ccccc4)cc3)ncnc2cc1OCC1CCN(C)CC1 [Example 7, N-(4-(benzyloxy)phenyl)-6-methoxy-7-((1-methylpiperidin-4-yl)methoxy)quinazolin-4-amine] | 5570 ± 1000 | 2.6 ± 1.3 | 4630 ± 825 | 
2 | COc1cc2c(Nc3ccccc3P(C)(C)=O)ncnc2cc1OCC1CCN(C)CC1 [Example 13, (2-((6-methoxy-7-((1-methylpiperidin-4-yl)methoxy)quinazolin-4-yl)amino)phenyl)dimethyl phosphine oxide] | > 10000 | 7340 ± 2520 | > 10000 | 150.5 to 150.8
3 | COc1cc2ncnc(Nc3ccc(NC(=O)c4ccccc4)cc3F)c2cc1OC [Example 15] | > 10000 |  | > 10000 | 
4 | COc1cc2ncnc(Nc3cc(NC(=O)c4ccccc4)ccc3F)c2cc1OC [Example 16] | > 10000 | 137 ± 80.2 | > 10000 | 
5 | COc1cc2ncnc(Nc3ccc(NC(=O)C(c4ccccc4)N4Cc5ccccc5C4=O)cc3F)c2cc1OC (stereo not drawn) [Example 17] | 37.1 ± 18.8 | 16.1 ± 4.8 | 8.5 ± 0.7 | 
6 | COc1cc2c(Nc3ccc(NC(=O)[C@H](c4ccccc4)N4Cc5ccccc5C4=O)cc3F)ncnc2cc1OCC1CCN(C)CC1 [Example 19, (S)—N-(3-Fluoro-4-((6-methoxy-7-((1-methylpiperidin-4-yl)methoxy)quinazolin-4-yl)amino)phenyl)-2-(1-oxoisoindolin-2-yl)-2-phenylacetamide] | 7.9 ± 2 | 4.6 ± 2.8 | 8.6 ± 2.1 | 
7 | COc1cc2c(Nc3ccc(NC(=O)[C@@H](c4ccccc4)N4Cc5ccccc5C4=O)cc3F)ncnc2cc1OCC1CCN(C)CC1 [Example 20, (R)—N-(3-Fluoro-4-((6-methoxy-7-((1-methylpiperidin-4-yl)methoxy)quinazolin-4-yl)amino)phenyl)-2-(1-oxoisoindolin-2-yl)-2-phenylacetamide] | 19.2 ± 3.2 | 3.5 ± 1 | 6.4 ± 1.6 | 
8 | COc1cc2ncnc(Nc3ccc(NC(=O)C(c4ccccc4)N4Cc5ccccc5C4=O)cc3F)c2cc1OCN1CCN(C)CC1 (stereo not drawn) [Example 24] | 19.1 ± 4.6 | 1 ± 0.2 | 4.8 ± 0.7 | 
9 | COc1cc2ncnc(Nc3ccc(NC(=O)C(c4ccccc4)N4Cc5ccccc5C4=O)cc3F)c2cc1OCCCN1CCOCC1 (stereo not drawn) [Example 25, (3-Fluoro-4-((7-methoxy-6-(3-morpholinopropoxy)quinazolin-4-yl)amino)phenyl)-2-(1-oxoisoindolin-2-yl)-2-phenylacetamide] | 97.5 ± 12.9 | 1.6 ± 0.3 | 7.3 ± 1.3 | 
10 | COCCOc1cc2ncnc(Nc3ccc(NC(=O)C(c4ccccc4)N4Cc5ccccc5C4=O)cc3F)c2cc1OCCOC (stereo not drawn) [Example 26, (4-((6,7-bis(2-methoxyethoxy)quinazolin-4-yl)amino)-3-fluorophenyl)-2-(1-oxoisoindolin-2-yl)-2-phenylacetamide] | 8.5 ± 2.6 | 0.7 ± 0.1 | 1.5 ± 0.2 | 
11 | COc1cc2nc(N)nc(Nc3ccc(NC(=O)C(c4ccccc4)N4Cc5ccccc5C4=O)cc3F)c2cc1OC (stereo not drawn) [Example 27, (4-((2-amino-6,7-dimethoxyquinazolin-4-yl)amino)-3-fluorophenyl)-2-(1-oxoisoindoline-2-yl)-2-phenylacetamide] | > 10000 | 388 ± 55.3 | > 10000 | 

Next, values leading:

Row | IC50 [1] [nM] | IC50 (EGFR(WT)) [nM] | IC50 (EGFR L858R/T790M (LR/TM)) [nM] | melting point [°C] | Compound
12 | > 10000 | 59.9 ± 1.8 | 6630 ± 657 |  | COc1cc2c(Nc3ccc(NC(=O)c4ccccc4)cc3F)ncnc2cc1OCC1CCN(C)CC1 [Example 1]
13 | > 10000 | 53.7 ± 13.8 | > 10000 |  | COc1cc2c(Nc3cc(NC(=O)c4ccccc4)ccc3F)ncnc2cc1OCC1CCN(C)CC1 [Example 2, N-(4-Fluoro-3-((6-methoxy-7-((1-methylpiperidin-4-yl)methoxy)quinazolin-4-yl)amino)phenyl)benamide]
14 | > 10000 | 3.7 ± 1.6 | 7560 ± 1200 |  | COc1cc2c(Nc3ccc(NC(=O)Cc4ccccc4)cc3F)ncnc2cc1OCC1CCN(C)CC1 [Example 3, N-(3-Fluoro-4-((6-methoxy-7-((1-methylpiperidin-4-yl)methoxy)quinazolin-4-yl)amino)phenyl)-2-phenylacetamide]
15 | > 10000 | 1350 ± 312 | > 10000 |  | COc1cc2c(Nc3cc(NC(=O)Cc4ccccc4)ccc3F)ncnc2cc1OCC1CCN(C)CC1 [Example 4, N-(4-Fluoro-3-((6-methoxy-7-((1-methylpiperidin-4-yl)methoxy)quinazolin-4-yl)amino)phenyl)-2-phenylacetamide]
16 | > 10000 | 68.3 ± 13 | 1380 ± 235 |  | COc1cc2c(Nc3ccc(NC(=O)CC4Cc5ccccc5C4)cc3F)ncnc2cc1OCC1CCN(C)CC1 [Example 5]
17 | > 10000 | 1100 ± 180 | 3030 ± 689 |  | COc1cc2c(Nc3cc(NC(=O)CC4Cc5ccccc5C4)ccc3F)ncnc2cc1OCC1CCN(C)CC1 [Example 6, 2-(2,3-Dihydro-1H-inden-2-yl)-N-(4-fluoro-3-((6-methoxy-7-((1-methylpiperidin-4-yl)methoxy)quinazolin-4-yl)amino)phenyl)acetamide]
18 | 4810 ± 2920 | 7.7 ± 1.8 | 2560 ± 800 | 199.6 to 199.8 | COc1cc2c(Nc3ccc(NC(=O)C(C)c4ccccc4)cc3F)ncnc2cc1OCC1CCN(C)CC1 (stereo not drawn) [Example 9, N-(3-Fluoro-4-((6-methoxy-7-((1-methylpiperidin-4-yl)methoxy)quinazolin-4-yl)amino)phenyl)-2-phenylpropionamide]
19 | 3190 ± 2500 | 23.1 ± 8.3 | 2030 ± 755 | 196 to 196.2 | COc1cc2c(Nc3ccc(NC(=O)C(c4ccccc4)C(C)C)cc3F)ncnc2cc1OCC1CCN(C)CC1 (stereo not drawn) [Example 10, N-(3-Fluoro-4-((6-methoxy-7-((1-methylpiperidin-4-yl)methoxy)quinazolin-4-yl)amino)phenyl)-3-methyl-2-phenylbutanamide]
20 | 1300 ± 308 | 5.6 ± 3.3 | 1000 ± 435 | 257 to 257.2 | COc1cc2c(Nc3ccc(NC(=O)C(c4ccccc4)c4ccccc4)cc3F)ncnc2cc1OCC1CCN(C)CC1 [Example 11, N-(3-fluoro-4-((6-methoxy-7-((1-methylpiperidin-4-yl)methoxy)quinazolin-4-yl)amino)phenyl)-2,2-diphenyl]
21 | 14.5 ± 3.3 | 1.3 ± 0.3 | 3.2 ± 0.8 |  | COc1cc2c(Nc3ccc(NC(=O)C(c4ccccc4)N4Cc5ccccc5C4=O)cc3F)ncnc2cc1OCC1CCN(C)CC1 (stereo not drawn) [Example 12]
22 | 14.5 ± 5.2 | 1.3 ± 0.6 | 3.2 ± 1.3 |  | COc1cc2c(Nc3cc(NC(=O)C(c4ccccc4)N4Cc5ccccc5C4=O)ccc3F)ncnc2cc1OCC1CCN(C)CC1 (stereo not drawn) [Example 18]
23 | 361 ± 123 | 27.1 ± 12 | 180 ± 94.9 |  | COc1cc2c(Nc3ccc(NC(=O)C(C4CCCCC4)N4Cc5ccccc5C4=O)cc3F)ncnc2cc1OCC1CCN(C)CC1 (stereo not drawn) [Example 21, 2-cyclohexyl-N-(3-fluoro-4-((6-methoxy-7-((1-methylpiperidin-4-yl)methoxy)quinazoline-4-yl)amino)phenyl)-2-(1-oxoisoindolin-2-yl)acetamide]
24 | 13.4 ± 2.7 | 2 ± 0.5 | 6.7 ± 2.2 |  | COc1cc2c(Nc3ccc(NC(=O)C(c4cccc(F)c4)N4Cc5ccccc5C4=O)cc3F)ncnc2cc1OCC1CCN(C)CC1 (stereo not drawn) [Example 22, N-(3-Fluoro-4-((6-methoxy-7-((1-methylpiperidin-4-yl)methoxy)quinazolin-4-yl)amino)phenyl)-2-(3fluorophenyl)-2-(1-oxoisoindolin-2-yl)acetamide]
25 | 18 ± 8.6 | 0.8 ± 0.3 | 2.4 ± 0.5 |  | COc1cc2ncnc(Nc3ccc(NC(=O)C(c4ccccc4)N4Cc5ccccc5C4=O)cc3F)c2cc1OCC1CCN(C)CC1 (stereo not drawn) [Example 23]
26 | 27.5 ± 17.7 | 2.5 ± 0.8 | 35.3 ± 12.1 |  | COc1cc2c(Nc3ccc(NC(=O)C(c4cc(F)ccc4F)N4Cc5ccccc5C4=O)cc3F)ncnc2cc1OCC1CCN(C)CC1 (stereo not drawn) [Example 28, 2-(2,5-Difluorophenyl)-N-(3-fluoro-4-((6-methoxy-7-((1-methylpiperidin-4-yl)methoxy)quinazolin-4-yl)amino)phenyl)-2-(1-oxoisoindolin-2-yl)acetamide]
